# System: HBB locus in CD34+ HSPCs
# Assay: In vitro editing of HBB in CD34+ HSPCs with T223 RNP and AAV.321 (Example 9)
# Format: cell-based, human
# Settings: T223 RNP+AAV.321-edited cells treated with i53
# Protocol: Gene-editing of HBB was evaluated using CD34+ HSPCs that were derived and maintained in culture as described in Example 1. HSPCs were subjected to gene-editing following two days of culture. To perform gene-editing, the cells were electroporated with RNP. Specifically, 5×10^6 cells were electroporated using the Maxcyte Buffer/HSC-3 program with RNP containing 20 μg SpCas9 and 20 μg sgRNA (T223 or R02). Cells were transfected with corresponding AAV donor template at a dose of 10,000 MOI (AAV.321 or AAV.323 respectively). The effect of 53BP1 inhibition and DNA-PK inhibitions on editing with RNP+AAV was also evaluated by treating cells with […] or 1 μg i53 mRNA+1 μM Nu7441.
# The cells were cultured for two days following electroporation and prior to evaluation of editing efficiency. To evaluate editing efficiency, genomic DNA was harvested from edited cells, and frequency of HDR and frequency of INDELs at the predicted gRNA cut site was evaluated as described in Example 1.
substance,measurement,value
"i53: polypeptide inhibitor of 53BP1 (SEQ ID NO: 11), introduced as an mRNA-encoded protein (ORF SEQ ID NO: 10)",frequency of INDELs at the T223 cut site,reduced
same,frequency of genomic DNA incorporating the E6V gene-edit,improved
